In data set [1] the target is T1, human MAO-B (Homo sapiens, UniProt P27338).
T1 sequence (P27338 1-520): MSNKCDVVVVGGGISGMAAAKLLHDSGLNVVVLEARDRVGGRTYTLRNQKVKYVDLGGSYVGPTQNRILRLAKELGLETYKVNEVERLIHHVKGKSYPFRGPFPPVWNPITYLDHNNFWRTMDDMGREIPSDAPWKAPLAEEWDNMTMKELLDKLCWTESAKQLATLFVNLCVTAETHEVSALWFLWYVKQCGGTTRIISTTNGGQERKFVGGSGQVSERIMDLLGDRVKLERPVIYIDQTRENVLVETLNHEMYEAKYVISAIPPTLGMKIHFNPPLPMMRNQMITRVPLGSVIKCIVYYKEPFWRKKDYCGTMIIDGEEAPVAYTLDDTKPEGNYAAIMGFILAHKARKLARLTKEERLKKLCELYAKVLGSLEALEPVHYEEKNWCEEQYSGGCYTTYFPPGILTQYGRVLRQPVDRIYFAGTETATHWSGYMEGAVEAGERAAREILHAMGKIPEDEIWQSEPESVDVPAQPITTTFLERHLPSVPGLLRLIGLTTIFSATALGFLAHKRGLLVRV
Put plainly: MAO-B reactivation experiment (time-dependent inhibition, reversibility). As to conditions: compound at IC80; p-tyramine raised from 10 μM to 1.0 mM; monitored 5 hours.

Data set [2] addresses T2, rat MAO-A (Rattus norvegicus, UniProt P21396).
T2 construct: from tissue; host or cells: rat liver mitochondria (male Sprague-Dawley rats)
T2 sequence (P21396 1-526): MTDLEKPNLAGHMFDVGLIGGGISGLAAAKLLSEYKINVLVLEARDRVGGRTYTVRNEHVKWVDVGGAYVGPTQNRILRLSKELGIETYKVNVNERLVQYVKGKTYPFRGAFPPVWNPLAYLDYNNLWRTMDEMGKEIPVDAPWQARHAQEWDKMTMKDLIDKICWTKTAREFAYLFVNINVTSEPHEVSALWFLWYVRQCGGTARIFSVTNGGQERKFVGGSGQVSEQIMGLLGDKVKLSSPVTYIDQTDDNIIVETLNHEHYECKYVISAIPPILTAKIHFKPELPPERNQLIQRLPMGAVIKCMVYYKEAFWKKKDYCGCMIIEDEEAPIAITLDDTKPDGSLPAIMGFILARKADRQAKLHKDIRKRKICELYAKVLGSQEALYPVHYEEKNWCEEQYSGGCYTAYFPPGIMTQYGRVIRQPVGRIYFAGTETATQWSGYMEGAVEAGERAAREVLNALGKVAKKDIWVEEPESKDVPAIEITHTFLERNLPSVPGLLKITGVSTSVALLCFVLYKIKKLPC
Nature of the data set: Rat MAO-A assay (Amplex Red fluorescence, rat liver mitochondria pre-treated with deprenyl). Type of data set: biochemical. As to conditions: for inhibition at 10 µM: read-out: rat MAO-A (rat liver mitochondria) % inhibition at 10 μM.
Procedure: (§1) Male Sprague-Dawley (Harlan Sprague Dawley, Dublin, Va., US) rats (250-300 g) were sacrificed under light anesthesia and their livers were dissected. […] After homogenization, the volume is adjusted to 100 mL with the same buffer. After a low speed centrifugation (10 min at 600 g; 4° C.), the supernatant is further centrifuged at 15,000 rpm for 5 min at +4° C. The resulting pellet was resuspended in 2.0 mL of a 50 mM sodium/phosphate buffer (pH 7.4) and stored at −80° C. in aliquots of 1.0 mL each until further use.
(§2) The Amplex® Red reagent was prepared as recommended in the kit from Invitrogen (A12214). […] Clorgyline (1.0 μM) from Sigma Aldrich (M3778) was used to determine non-MAO-A enzyme activity and concentration-response curves of clorgyline serve as positive control.

Data set [3] concerns the target T1, human MAO-B. Put plainly: Human MAO-B assay (recombinant enzyme, Amplex Red fluorescence). Type of data set: biochemical. More on the design: purchased Sigma-Aldrich M7441; host or cells: baculovirus-infected insect cells (microsomal product). The following applies: p-tyramine 150 μM.
Data set [4] deals with T3, human MAO-A (Homo sapiens, UniProt P21397).
T3 sequence (P21397 1-527): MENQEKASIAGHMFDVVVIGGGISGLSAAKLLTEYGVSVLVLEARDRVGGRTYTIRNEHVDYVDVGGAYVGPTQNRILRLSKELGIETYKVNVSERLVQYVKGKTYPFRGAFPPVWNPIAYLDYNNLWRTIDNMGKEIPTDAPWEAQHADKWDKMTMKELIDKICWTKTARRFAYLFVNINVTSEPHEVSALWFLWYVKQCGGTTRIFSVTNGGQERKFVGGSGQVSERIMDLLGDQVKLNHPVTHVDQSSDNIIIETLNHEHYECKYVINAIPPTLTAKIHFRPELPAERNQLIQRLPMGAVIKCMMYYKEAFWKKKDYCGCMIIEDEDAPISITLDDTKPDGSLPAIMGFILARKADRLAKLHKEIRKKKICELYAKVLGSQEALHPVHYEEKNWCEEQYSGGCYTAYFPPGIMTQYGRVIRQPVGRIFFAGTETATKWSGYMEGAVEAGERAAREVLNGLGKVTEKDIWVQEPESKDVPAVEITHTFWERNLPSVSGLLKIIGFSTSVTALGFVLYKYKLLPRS
Nature of the data set: Human MAO-A assay (recombinant enzyme, Amplex Red fluorescence). The following applies: for inhibition at 10 µM: read-out: human MAO-A % inhibition at 10 μM.

Data set [5] has as its target T4, rat MAO-B (Rattus norvegicus, UniProt P19643).
T4 construct: from tissue; host or cells: rat liver mitochondria (male Sprague-Dawley rats)
T4 sequence (P19643 1-520): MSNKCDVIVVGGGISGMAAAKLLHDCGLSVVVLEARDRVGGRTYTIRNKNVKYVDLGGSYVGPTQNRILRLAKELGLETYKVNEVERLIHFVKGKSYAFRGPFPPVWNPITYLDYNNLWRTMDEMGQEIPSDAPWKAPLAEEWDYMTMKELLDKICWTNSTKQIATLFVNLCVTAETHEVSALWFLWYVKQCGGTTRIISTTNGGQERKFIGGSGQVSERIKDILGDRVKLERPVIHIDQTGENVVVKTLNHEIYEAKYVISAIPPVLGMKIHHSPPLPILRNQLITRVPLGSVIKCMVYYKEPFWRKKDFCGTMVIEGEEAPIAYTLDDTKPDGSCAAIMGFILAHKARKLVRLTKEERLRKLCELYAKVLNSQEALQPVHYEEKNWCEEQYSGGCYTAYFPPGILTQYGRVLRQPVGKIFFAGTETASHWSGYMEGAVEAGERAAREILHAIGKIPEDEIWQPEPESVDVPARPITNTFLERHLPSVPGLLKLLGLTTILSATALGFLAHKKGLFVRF
Nature of the data set: Rat MAO-B assay (Amplex Red fluorescence, rat liver mitochondria pre-treated with clorgyline 30 nM). Type of data set: biochemical. The following applies: rat liver mitochondria pre-treated with clorgyline 30 nM; read-out: rat MAO-B (rat liver mitochondria) IC50.
Procedure: as §1, §2

The target of data set [6] is T1, human MAO-B. Nature of the data set: Assay for mode of MAO-B inhibition (substrate-dependent kinetics, Lineweaver-Burk plots). It is filed as biochemical. The following applies: p-tyramine 0.05-[…]; inhibitor 0.1-10 nM; n=2. Also noted: purchased Sigma-Aldrich M7441; host or cells: baculovirus-infected insect cells (microsomal product).
Procedure: The type of MAO-B enzyme inhibition was determined by Michaelis-Menten kinetic experiments and sets of Lineweaver-Burk plots were generated. The reciprocal MAO-B activity was plotted against the reciprocal substrate concentration (n=2). […] The enzymatic reactions and measurements were performed using human MAO-B assay conditions, applied for the determination of IC50 values. The experiment was performed in duplicate.
Data set [7] in a line: Solubility in organic solvents and in water (physicochemical properties, Table 1). As to conditions: for solubility: water, aqueous buffer.
A short description of data set [8]: Storage stability (physicochemical properties, Table 1). As to conditions: specified storage temperature (room temperature).
The mark [9] stands for this setting: rat liver mitochondria, substrate p-tyramine, read-out: rat MAO-A (rat liver mitochondria) IC50.
[10] abbreviates: read-out: human MAO-A IC50, recombinant human enzyme, p-tyramine 150 μM.

Molecules are shown by their SMILES. Like-named read-outs stand apart in the source and are kept apart here.

In the case of `C[C@H](NCc1ccc(OCc2cccc(F)c2)cc1)C(N)=O` [safinamide, reference compound], the “reversibility of MAO-B inhibition (enzyme reactivation after raising substrate)” value in data set [1] is reported as “The same result was observed”.
With `COc1cc(NC(=O)c2ccc3[nH]ncc3c2)ccc1Cl` [Example 4, N-(4-chloro-3-methoxy)-1H-indazole-5-carboxamide], the melting point (in general, the temperature of the solid-liquid transition) is 279.6 to 281.6 °C. Also, the concentration for half-maximal inhibition (IC50) (commonly the concentration at which inhibition is half-maximal) in data set [2] (setting [9]) was above 10 µM. Further, the inhibition – broadly, how much of the control response was suppressed – at 10 µM in [2] (rat liver mitochondria) was found to be 24%. Also, in [3], the IC50 worked out at 0.00436 ± 8e-05 µM. In data set [4], the inhibition at 10 µM was 62%. Also, in data set [4] (setting [10]), the IC50 is 8.79 ± 0.2 µM. In addition, the IC50 in [5] is 0.0431 ± 0.0042 µM.
Take `O=C(Nc1ccc(O)c(Cl)c1)c1ccc2[nH]ncc2c1` [Example 5, N-(3-chloro-4-hydroxyphenyl)-1H-indazole-5-carboxamide]: the melting point lay in the range of 272.2 to 273.4 °C. In data set [2] (setting [9]), the concentration for half-maximal inhibition (IC50) was below 10 µM. Further, the inhibition at 10 µM in data set [2] (rat liver mitochondria) stood at 60%. Besides, in [3], the IC50 was found to be 0.123 ± 0.016 µM. Further, in data set [4], the IC50 was above 10 µM and the inhibition at 10 µM was determined as 33%. In addition, the IC50 in data set [5] turned out to be 0.941 ± 0.051 µM.
With `COc1ccc(NC(=O)c2ccc3[nH]ncc3c2)cc1OC` [Example 7, N-(3,4-dimethoxyphenyl)-1H-indazole-5-carboxamide], the melting point lay in the range of 258.3 to 261.3 °C. For the same compound, the half-maximal inhibitory concentration (IC50) in data set [2] (setting [9]) is above 10 µM. For the same compound, the inhibition at 10 µM in [2] (rat liver mitochondria) is 9%. The IC50 in [3] turned out to be 0.185 ± 0.021 µM. For the same compound, in [4], the IC50 was above 10 µM and the inhibition at 10 µM worked out at 9%. The IC50 in data set [5] came to 1.4 ± 0.056 µM.
`O=C(Nc1ccc(Cl)c(O)c1)c1ccc2[nH]ncc2c1` [Example 6, N-(4-chloro-3-hydroxyphenyl)-1H-indazole-5-carboxamide]: the melting point lay in the range of 306.6 to 307.3 °C. Moreover, the concentration for half-maximal inhibition (IC50) in data set [2] (setting [9]) is above 10 µM. Besides, in [2] (rat liver mitochondria), the inhibition at 10 µM is 43%. Besides, the 50% inhibitory concentration (IC50) in [3] was 0.0375 ± 0.0073 µM. In [4], the inhibition at 10 µM was 81%. The IC50 in data set [4] (setting [10]) is 3 ± 0.122 µM. In addition, the IC50 in data set [5] is 0.385 ± 0.009 µM.
Consider `Cn1ncc2cc(C(=O)Nc3ccc(Cl)c(Cl)c3)ccc21` [Example 13], for which the results for the IC50 in data set [2] and in data set [5] were above 10 µM and 0.00132 ± 9e-05 µM, respectively. Further, the inhibition at 10 µM in data set [2] (rat liver mitochondria) was 42%; in data set [4], 37%. Moreover, the “mode of MAO-B inhibition (Lineweaver-Burk plots)” value in data set [6] was “linear and intersected at the y-axis with the plot for the uninhibited enzyme”. Besides, the “Solubility in water” value in [7] (hot water) is “Very slightly soluble in hot water”. Further, the Solubilty inorganic solvents entry is recorded as “Soluble (0.01-0.03 mL per 1.0 mg) in DMSO, DMF,” in data set [7] (in DMSO, DMF, MeOH, EtOH, i-PrOH, n-BuOH, t-BuOH, acetonitrile (Soluble)); “Insoluble (>10 mL per 1.0 mg) in petroleum ether,” in data set [7] (in petroleum ether, Et2O and n-hexane (Insoluble)). Further, the solubility (usually the dissolved amount per volume that the medium holds) in [7] (at 22.5° C., pH 7.4) was below 0.01 µg/mL; in data set [7] (at 90° C., pH 7.4, pH 1.0), below 0.035 µg/mL. Further, in [1], the “reversibility of MAO-B inhibition (enzyme reactivation after raising substrate)” value is given as “reversible MAO-B inhibitors”. Also, the Stability result in data set [8] is reported as “Stable under specified storage temperature (room”.
With `COc1ccc(NC(=O)c2ccc3[nH]ncc3c2)cc1Cl` [Example 3, N-(3-chloro-4-methoxy)-1H-indazole-5-carboxamide], the melting point was in the range of 276.2 to 277.8 °C. In addition, in data set [2] (setting [9]), the half-inhibitory concentration (IC50) was above 10 µM. In addition, the inhibition at 10 µM in data set [2] (rat liver mitochondria) came to 13%. Also, in data set [3], the 50% inhibitory concentration (IC50) was 0.00342 ± 0.00028 µM. In data set [4], the IC50 is above 10 µM and the inhibition at 10 µM turned out to be 30%. Besides, the 50% inhibitory concentration (IC50) in [5] was found to be 0.0219 ± 0.0034 µM.
